We go through nine compounds from US5637770A (priority 1991, dated 1997).

Data set [1] has as its system P388 murine leukemia cells. Nature of the data set: MTT cytotoxicity test on P388 murine leukemia cells (Table 1). The conditions noted are these: 3 days. It counts as cell-based. On the procedure:
P388 murine leukemia cells were spread over a 96-well microplate, 2.5×10^3 cells per well. A sample to be tested was added after 24 hours. Cells were cultivated under the conditions of 5% CO2 at 37° C. for 3 days. 3-(4,5-Dimethylthiazol-2-yl)-2,5-diphenyl-2H-tetrazolium bromide (MTT) was added 4 hours after the addition of the sample. Upon the addition of […] of isopropyl alcohol containing 0.04N HCl the absorption at 540 nm was measured to determine IC50.
Background: Tetrazolium assays rely on reduction of a dye to a coloured formazan, in cell work by metabolically active cells.

The target in data set [2] is T1, topoisomerase I (Mus musculus, UniProt Q04750).
T1 construct: Topoisomerase I was prepared from p388 mouse leukemia; endogenous in cells; host or cells: P388 mouse leukemia
T1 sequence (Q04750 1-767): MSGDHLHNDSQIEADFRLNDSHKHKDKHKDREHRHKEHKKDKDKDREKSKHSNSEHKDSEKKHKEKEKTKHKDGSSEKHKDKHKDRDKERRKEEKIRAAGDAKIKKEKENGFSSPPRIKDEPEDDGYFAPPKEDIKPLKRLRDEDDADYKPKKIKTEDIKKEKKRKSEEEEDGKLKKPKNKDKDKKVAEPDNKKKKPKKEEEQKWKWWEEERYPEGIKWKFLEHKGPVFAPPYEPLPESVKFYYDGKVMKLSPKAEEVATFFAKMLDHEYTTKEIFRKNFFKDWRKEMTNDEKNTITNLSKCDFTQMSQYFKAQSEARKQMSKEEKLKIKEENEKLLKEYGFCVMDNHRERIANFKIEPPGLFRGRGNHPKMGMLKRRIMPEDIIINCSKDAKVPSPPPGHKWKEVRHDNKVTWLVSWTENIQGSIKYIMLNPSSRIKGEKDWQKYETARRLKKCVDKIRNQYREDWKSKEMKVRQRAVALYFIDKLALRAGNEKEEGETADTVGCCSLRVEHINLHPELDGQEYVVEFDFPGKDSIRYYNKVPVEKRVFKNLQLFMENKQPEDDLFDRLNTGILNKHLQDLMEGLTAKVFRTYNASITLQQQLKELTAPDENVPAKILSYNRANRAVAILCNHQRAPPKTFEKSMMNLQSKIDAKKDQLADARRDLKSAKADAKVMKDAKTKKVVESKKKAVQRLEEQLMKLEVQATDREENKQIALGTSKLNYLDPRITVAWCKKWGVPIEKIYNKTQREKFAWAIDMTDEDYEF
Nature of the data set: Topoisomerase I assay, relaxation of supercoiled SV40 DNA. It counts as biochemical, p388 mouse leukemia. On the procedure: Topoisomerase I was prepared from p388 mouse leukemia. One unit (the minimum amount of full relaxation of 0.5 μg SV40 DNA) of topoisomerase I,
0.5 μl of the test compounds, and 0.5 μg of SV40 DNA were added sequentially to the reaction buffer. The reaction mixture (50 μl) was incubated for 10 min and 37° C. and analyzed by electrophoresis, the gel was stained with 0.05% ethydium bromide and photographed with UV light. The DNA was quantified using a densitometor. The inhibition rate of the topoisomerase activity was calculated as [formula] where Frt and Frc are ratios of relaxed DNA to total DNA treated with topoisomerase in the presence and absence of the test drug, respectively. Fr is the proportion of relaxed DNA in untreated DNA. The IC50 of each test drug was estimated from the dose-response.

Data set [3] relates to MKN 28 (human stomach cancer cells). Nature of the data set: MTT method, activity on MKN28 cells (Table 2-1). It counts as cell-based. The following applies: MKN-28, 72 h. As to the method: (§1) See page 11 of the parent specification. In detail, p388 murine leukemia cells, MKN 28 (human stomach cancer cells), QG56 (human lung cancer cells) and HOC21 (human ovarian cancer cells) were provided. The cells were spread over a 96-well microplate, respectively, and a sample to be tested was added to each of them after 24 hours. Cells were cultivated under the conditions of 5% CO2 at 37° C. for 3 days.
(§2) 3-(4,5-Dimethylthiazol-2-yl)-2,5-diphenyl-2H-tetrazolium bromide (abbriviated as MTT) was added thereto 4 hours after the addition of the sample. Upon the addition of […] of isopropyl alcohol containing 0.04N HCl, the absorption at 540 nm was measured To determine IC50.

Data set [4] concerns QG90 (Lung). Nature of the data set: In vitro anti-proliferative activity, QG90 (Table 2-2). It counts as cell-based. The following applies: Homo sapiens, QG-90, 72 h, read-out: in vitro anti-proliferative activity (Gl50). As to the method:
(§3) In vitro anti-proliferative activities of the drugs against 4 human and 1 murine cell lines were measured by the MTT assay (see page 11 of the parent specification) after 3 days incubation, and expressed as the doses required to inhibit growth of 50% cells cultivated (Gl50, ng/ml).

Data set [5] deals with Meth A fibrosarcoma. Nature of the data set: In vivo anti-tumor activity, Meth A fibrosarcoma in BALB/c mice (Table 3). The conditions noted are these: i.v.; for Death Nos.: qd×4; for Tumor cell anti-proliferative activity: qd×4 (days 5-8), day 14. As to the method: In vivo anti-tumor activities of drugs were assayed with Meth A fibrosarcoma in BALB/c mice. Mice were treated intravenously with several doses of drugs on days 5, 6, 7, and 8 (qd×4) after hypodermic tumor implantation, and the weight of the tumor masses measured on day 14. The anti-tumor activities of drugs against the tumor were expressed as the relative tumor weight of controls (%).

The subject of data set [6] is HOC21 (human ovarian cancer cells). Nature of the data set: MTT method, activity on HOC21 cells (Table 2-1). The conditions noted are these: HOC-21, 72 h. It counts as cell-based. As to the method:
as §1, §2

The subject of data set [7] is 4 human and 1 murine cell lines. Put plainly: In vitro anti-proliferative activity, mean over the cell lines (Table 2-2). It counts as cell-based. The conditions noted are these: read-out: in vitro anti-proliferative activity (Gl50), MEAN. On the procedure:
as §3

In data set [8] the test system is p388 (Mouse leukemia). Nature of the data set: In vitro anti-proliferative activity, p388 (Table 2-2). The following applies: read-out: in vitro anti-proliferative activity (Gl50). It counts as cell-based. As to the method: as §3
In data set [9] the test system is QG56 (human lung cancer cells). Nature of the data set: MTT method, activity on QG56 cells (Table 2-1). It counts as cell-based. The following applies: QG-56, 72 h. As to the method:
as §1, §2

Data set [10] concerns MCF-7 (Breast). Nature of the data set: In vitro anti-proliferative activity, MCF-7 (Table 2-2). It counts as cell-based. The conditions noted are these: Homo sapiens, MCF7, 72 h, read-out: in vitro anti-proliferative activity (Gl50). As to the method:
as §3

Data set [11] deals with HOC-21 (Ovary). Put plainly: In vitro anti-proliferative activity, HOC-21 (Table 2-2). It counts as cell-based. The conditions noted are these: Homo sapiens, read-out: in vitro anti-proliferative activity (Gl50). As to the method: as §3
In data set [12] the test system is P388 murine leukemia cells. Nature of the data set: MTT method, activity on p388 cells (Table 2-1). It counts as cell-based. The conditions noted are these: Mus musculus. As to the method:
as §1, §2

Data set [13] relates to MKN28 (Stomach). Put plainly: In vitro anti-proliferative activity, MKN28 (Table 2-2). It counts as cell-based. The following applies: Homo sapiens, MKN-28, 72 h, read-out: in vitro anti-proliferative activity (Gl50). As to the method: as §3
A short description of data set [14]: Acute toxicity in mice. It counts as in vivo. The conditions noted are these: i.v., male BALB/c mice, survival on day 14, Probit method. On the procedure:
Groups of 5 male BALB/c mice were administered intravenously with several doses of drugs, and their survivals from death were recorded up to day 14. The 10 and 50% lethal doses (LD10 and LD50) were calculated form the survival rate on day 14 by the Probit method.

Where [15] appears, read: QG90 (Lung), MTT, 3 days incubation.
Where [16] appears, read: 72 h, p388 (Mouse leukemia), MTT, 3 days incubation.
[17] abbreviates: MCF-7 (Breast), MTT, 3 days incubation.
The mark [18] stands for this setting: 72 h, HOC-21 (Ovary), MTT, 3 days incubation.
[19] abbreviates: MKN28 (Stomach), MTT, 3 days incubation.

Molecules are shown by their SMILES. In brackets after ≈: the same amount, converted by molar mass. Like-named read-outs stand apart in the source and are kept apart here.

As to `CC[C@@]1(O)C(=O)OCc2c1cc1n(c2=O)Cc2c-1nc1ccc(OC)c3c1c2CCC3N.Cl` (single isomer, unassigned) [Example 7 (Isomer B)], the IC50 in [1] (hydrochloride) is 11.90 ng/mL.

In the case of `CC[C@@]1(O)C(=O)OCc2c1cc1n(c2=O)Cc2c-1nc1cc(F)c(C)c3c1c2C(N)CC3.Cl` (stereo partly drawn) [DX-8951, (9S)-1-amino-9-ethyl-5-fluoro-2,3-dihydro-9-hydroxy-4-methyl-1H,12H-benzo[de]pyrano[3',4':6,7]indolizino[1,2-b]quinoline-10,13(9H,15H)-dione hydrochloride], the IC50 in [2] is 1120 nM; in data set [3], 9.4 ng/mL; in [4] it was 0.66 ng/mL; in data set [6] it was 12.8 ng/mL; in [7], 1.46 ng/mL; in [8] (Mus musculus, P388, 72 h), 1.06 ng/mL. Besides, the IC50 in [9] was 0.67 ng/mL; in data set [10], 0.16 ng/mL; in data set [11] (HOC-21, 72 h), 3.67 ng/mL; in data set [12] (P388, 72 h), 0.58 ng/mL; in data set [13] it was 1.75 ng/mL. Besides, the “Death Nos.” value is listed as 0/6 in data set [5] (total dose 1.875 mg/kg); 0/6 in [5] (total dose 3.75 mg/kg); 0/6 in data set [5] (total dose 7.5 mg/kg); 0/6 in [5] (total dose 15 mg/kg); 2/6 in data set [5] (total dose 30 mg/kg). Moreover, the “Tumor cell anti-proliferative activity” value in data set [5] (total dose 1.875 mg/kg) is reported as 72.5%; in data set [5] (total dose 3.75 mg/kg), 78.3%; in data set [5] (total dose 7.5 mg/kg), 87.5%; in data set [5] (total dose 15 mg/kg) it was 96.6%; in [5] (total dose 30 mg/kg), 96.4%. The compound also had an LD10 in data set [14] of 228 mg/m^2. Further, the LD50 in data set [14] is 270 mg/m^2.

The compound `CC[C@@]1(O)C(=O)OCc2c1cc1n(c2=O)Cc2c-1nc1ccc(OC)c3c1c2C(N)CC3.Cl` (single isomer, unassigned) [Example 4 (Isomer B)] returned an IC50 in [1] (hydrochloride) of 27.80 ng/mL.

For the compound `CC[C@@]1(O)C(=O)OCc2c1cc1n(c2=O)Cc2c-1nc1ccc(OC)c3c1c2CCC3N.Cl` (single isomer, unassigned) [Example 7 (Isomer A)], the IC50 in data set [1] (Mus musculus, P388, 72 h, read-out: IC50) came to 11.4 ng/mL.

`CCc1c2c(nc3ccc(OC(=O)N4CCC(N5CCCCC5)CC4)cc13)-c1cc3c(c(=O)n1C2)COC(=O)[C@]3(O)CC` [CPT-11, irinotecan]: the IC50 is 1550 ng/mL (≈ 2.65 µM) in [4] (setting [15]); 5870 ng/mL (≈ 10 µM) in data set [7] (mean of the 5 cell lines); 2850 ng/mL (≈ 4.86 µM) in [8] (setting [16]); 1200 ng/mL (≈ 2.04 µM) in data set [10] (setting [17]); 15100 ng/mL (≈ 25.7 µM) in data set [11] (setting [18]); 8690 ng/mL (≈ 14.8 µM) in [13] (setting [19]). Besides, the “Death Nos.” value in data set [5] (total dose 25 mg/kg), in data set [5] (total dose 50 mg/kg), in data set [5] (total dose 100 mg/kg) and in data set [5] (total dose 200 mg/kg) was 0/6 in each case. The “Tumor cell anti-proliferative activity” value is on record as 31.4% in [5] (total dose 25 mg/kg), 53.3% in data set [5] (total dose 50 mg/kg), 62.3% in data set [5] (total dose 100 mg/kg) and 79.4% in data set [5] (total dose 200 mg/kg). The LD10 in data set [14] is on record as 198 mg/m^2. This compound also came in with an LD50 in data set [14] of 270 mg/m^2.

The compound `CC[C@@]1(O)C(=O)OCc2c1cc1n(c2=O)Cc2c-1nc1cccc3c1c2C(N)CC3.Cl` (single isomer, unassigned) [Example 2 (Isomer B)] gave an IC50 in data set [1] (hydrochloride) of 12.40 ng/mL.

`CC[C@@]1(O)C(=O)OCc2c1cc1n(c2=O)Cc2c-1nc1ccc(OC)c3c1c2C(N)CC3.Cl` (single isomer, unassigned) [Example 4 (Isomer A)] displayed an IC50 in data set [1] (hydrochloride) of 9.21 ng/mL.

As to `CCc1c2c(nc3ccc(O)cc13)-c1cc3c(c(=O)n1C2)COC(=O)[C@]3(O)CC` [SN-38, 7Ethyl-10-hydroxycamptothecin], the IC50 was 3570 nM in data set [2] (SV40 DNA, 10 min, 37° C., read-out: Inhibition of topoisomerase I-induced relaxation of supercoiled DNA (IC50) (converted)); 61 ng/mL (≈ 0.155 µM) in [3] (MKN28, MTT, 3 days, read-out: IC50); 1.43 ng/mL (≈ 0.00364 µM) in data set [4] (setting [15]); 53.2 ng/mL (≈ 0.136 µM) in [6] (HOC21, MTT, 3 days, read-out: IC50); 9.63 ng/mL (≈ 0.0245 µM) in data set [7] (mean of the 5 cell lines); 3.22 ng/mL (≈ 0.00821 µM) in [8] (setting [16]). For the same compound, the IC50 in data set [9] (QG56, MTT, 3 days, read-out: IC50) worked out at 2.46 ng/mL (≈ 0.00627 µM); in data set [10] (setting [17]), 0.49 ng/mL (≈ 0.00125 µM); in data set [11] (setting [18]), 21.4 ng/mL (≈ 0.0544 µM); in data set [12] (72 h, p388, MTT, 3 days, read-out: IC50), 1.33 ng/mL (≈ 0.00339 µM); in [13] (setting [19]), 21.7 ng/mL (≈ 0.0552 µM).

Consider `CC[C@@]1(O)C(=O)OCc2c1cc1n(c2=O)Cc2c-1nc1cccc3c1c2C(N)CC3.Cl` (single isomer, unassigned) [Example 2 (Isomer A)], for which the IC50 in [1] (hydrochloride) was 3.38 ng/mL.
